Reference: US5420156A, “Pharmacologically active compound and use” (Burroughs Wellcome Co., priority 1989, dated 1995)

Assays:
[1] = tested on: MAO-A (brain); experiment: In vivo inhibition of brain MAO-A (ex vivo assay after oral dosing); set-up: species or system male Sprague-Dawley rats; settings: for inhibition of brain MAO-A by the time of tyramine administration: single oral dose, 3 hours later (tyramine pressor study); for Percentage inhibition of MAO-A, Brain: 3 hours after dosing
Procedure: To determine MAO inhibition in brains and livers of rats pretreated with a reversible inhibitor, it was necessary to use an assay procedure that minimized dilution of the compound. Thus, high concentrations of tissue homogenates were incubated for very short periods of time. For brain assays, initial tissue was 3-fold diluted into each assay. […] Further dilution of liver homogenates was necessary in order to obtain reliable data. Substrate concentrations were not saturating, but were chosen relative to Km values for serotonin and β-phenethylamine in order to give an estimate of MAO-A and MAO-B, respectively. Brains from pretreated male Sprague-Dawley rats ([…]) were homogenized in a buffer consisting of 0.1 M potassium phosphate and 5% sucrose (pH 7.4) at a 1:1 tissue weight/buffer volume ratio, using a motorized Teflon/glass homogenizer. MAO-A and MAO-B were determined by incubating 100 μL of tissue homogenate with 50 μL of a double-label substrate mixture to give final concentrations of [^3 H]serotonin, 0.4 mM (5C/mole) and [^14 C]β-phenethylamine, 20 μM (3C/mole). For blank assays, 100 μL portions of homogeneous were pre-incubated for 15 min. at 37° C. with pargyline (4 mM) before substrate addition. Incubations with substrate present were at 37° C. for 30 sec. Assay mixtures were then acidified and products extracted as in the above in vitro method (White and Glassman, loc. cit.).

[2] = tested on: MAO-A (liver); experiment: In vivo inhibition of liver MAO-A (ex vivo assay after oral dosing); set-up: species or system rats
Procedure: To determine MAO inhibition in brains and livers of rats pretreated with a reversible inhibitor, it was necessary to use an assay procedure that minimized dilution of the compound. Thus, high concentrations of tissue homogenates were incubated for very short periods of time. For brain assays, initial tissue was 3-fold diluted into each assay. […] Further dilution of liver homogenates was necessary in order to obtain reliable data. Substrate concentrations were not saturating, but were chosen relative to Km values for serotonin and β-phenethylamine in order to give an estimate of MAO-A and MAO-B, respectively. Brains from pretreated male Sprague-Dawley rats (sacrificed 3 hours after oral dosing with the test compound) were homogenized in a buffer consisting of 0.1 M potassium phosphate and 5% sucrose (pH 7.4) at a 1:1 tissue weight/buffer volume ratio, using a motorized Teflon/glass homogenizer. MAO-A and MAO-B were determined by incubating 100 μL of tissue homogenate with 50 μL of a double-label substrate mixture to give final concentrations of [^3 H]serotonin, 0.4 mM (5C/mole) and [^14 C]β-phenethylamine, 20 μM (3C/mole). For blank assays, 100 μL portions of homogeneous were pre-incubated for 15 min. at 37° C. with pargyline (4 mM) before substrate addition. Incubations with substrate present were at 37° C. for 30 sec. Assay mixtures were then acidified and products extracted as in the above in vitro method (White and Glassman, loc. cit.).
Liver tissue was homogenized in the above phosphate-sucrose buffer at a 1:5 tissue weight/buffer volume ratio. Portions (100 μL) of homogenate were incubated with 50 μL of the above double-label substrate mixture. Blank assays included the same volume of homogenate pre-incubated with 4 mM pargyline for 15 min. at 37° C. After addition of substrates, mixtures were incubated at 37° C. for 30 sec, acidified, and products extracted as above.

[3] = tested on: monoamine oxidase (MAO); settings: background; cited from earlier work
[4] = tested on: MAO-A; experiment: In vitro inhibition of MAO-A in mitochondrial extracts of rat or human brain (double-label assay); type: biochemical
Procedure: (§1) MAO was assayed with [^3 H]serotonin (0.2 mM, 5G/mole) and [^14 C]β-phenethylamine (10 μM, 3 G/mole) as substrate in a double-label assay (White and Glassman, J. Neurochem, 29:987-97 (1977)). Under these conditions, serotonin is selectively metabolised by MAO-A and β-phenethylamine by MAO-B.

[5] = tested on: MAO-A; experiment: Kinetic mechanism of MAO-A inhibition in vitro (substrate serotonin or tyramine varied); type: biochemical, rat or human
Procedure: as §1
For studies of the kinetic mechanism of inhibition, the above method was used except that a single substrate, serotonin or tyramine, was varied over a 10-fold concentration range that included the Km concentration. When tyramine was used as substrate, the extract was pretreated with deprenyl (1 μM) to inhibit all MAO-B activity. MAO-A activity was determined in the absence and presence of the compound under test at each substrate concentration in duplicate or triplicate assays.

[6] = tested on: MAO-B (brain); experiment: In vivo inhibition of brain MAO-B (ex vivo assay after oral dosing); set-up: species or system male Sprague-Dawley rats; settings: 5, 10, 20 mg/kg p.o.
Procedure: (§2) To determine MAO inhibition in brains and livers of rats pretreated with a reversible inhibitor, it was necessary to use an assay procedure that minimized dilution of the compound. Thus, high concentrations of tissue homogenates were incubated for very short periods of time. For brain assays, initial tissue was 3-fold diluted into each assay. Because of the very high MAO activity. Further dilution of liver homogenates was necessary in order to obtain reliable data. Substrate concentrations were not saturating, but were chosen relative to Km values for serotonin and β-phenethylamine in order to give an estimate of MAO-A and MAO-B, respectively. Brains from pretreated male Sprague-Dawley rats (sacrificed 3 hours after oral dosing with the test compound) were homogenized in a buffer consisting of 0.1 M potassium phosphate and 5% sucrose (pH 7.4) at a 1:1 tissue weight/buffer volume ratio, using a motorized Teflon/glass homogenizer. MAO-A and MAO-B were determined by incubating 100 μL of tissue homogenate with 50 μL of a double-label substrate mixture to give final concentrations of [^3 H]serotonin, 0.4 mM (5C/mole) and [^14 C]β-phenethylamine, 20 μM (3C/mole). For blank assays, 100 μL portions of homogeneous were pre-incubated for 15 min. at 37° C. with pargyline (4 mM) before substrate addition. Incubations with substrate present were at 37° C. for 30 sec. […]

[7] = tested on: MAO-B (liver); experiment: In vivo inhibition of liver MAO-B (ex vivo assay after oral dosing); set-up: species or system rats; settings: 5, 10, 20 mg/kg p.o.
Procedure: as §2

[8] = Acute oral toxicity, mice; type: in vivo; settings: up to 1000 mg/kg., p.o.
[9] = Acute oral toxicity, rats; type: in vivo; settings: up to 1000 mg/kg., p.o.
[10] = tested on: MAO-A; experiment: Reversibility of binding to MAO-A by dialysis
[11] = tested on: elevation of blood pressure by orally ingested tyramine; experiment: Response to orally ingested tyramine (elevation of blood pressure) in test mammals; type: in vivo; settings: oral antidepressant doses prior to orally ingested tyramine

Compound: NNCCc1ccccc1 [pheneizine, reference compound]
- inhibition of brain MAO-A by the time of tyramine administration [1]: approximately 80%
- inhibition of liver MAO-A in tyramine pressor study ([2]; single oral dose producing approximately 80% inhibition of brain MAO-A): ≥ 90%
- type of MAO inhibition [3]: non-selective, irreversible inhibitors

Compound: N[C@@H]1C[C@H]1c1ccccc1 (relative stereo) [tranylcypromine]
- type of MAO inhibition [3]: non-selective, irreversible inhibitors

Compound: CCc1cccc2c1S(=O)(=O)c1ccccc1O2 [Compound I, 1-Ethylphenoxathiin 10,10-dioxide]
- inhibition of MAO-A (in words) [4]: potent selective inhibition of MAO-A
- IC50 ([4]; read-out: I50 (concentration producing 50% inhibition)): 35 nM
- type of inhibition vs. the substrate serotonin or tyramine ([5]; substrate serotonin or tyramine): competitive
- Ki ([5]; vs. substrate serotonin): 10 nM
- Ki ([5]; vs. substrate tyramine, extract pretreated with deprenyl (1 μM)): 10 nM
- Percentage inhibition of MAO-A, Brain ([1]; 5 mg/kg p.o.): 18.5 ± 8.1%
- Percentage inhibition of MAO-A, Brain ([1]; 10 mg/kg p.o.): 65.2 ± 6.6%
- Percentage inhibition of MAO-A, Brain ([1]; 20 mg/kg p.o.): 82.4 ± 2.6%
- time of peak inhibition of brain MAO-A ([1]; oral dose of 20 mg/kg): 1 to 6 h
- inhibition of brain MAO-A at 24 hours after dosing ([1]; oral dose of 20 mg/kg, 24 hours): negligible
- inhibition of brain MAO-A by the time of tyramine administration [1]: approximately 80%
- Percentage inhibition of MAO-A, Liver ([2]; 5 mg/kg p.o.): 32.8 ± 6.4%
- Percentage inhibition of MAO-A, Liver ([2]; 10 mg/kg p.o.): 61.8 ± 4.4%
- Percentage inhibition of MAO-A, Liver ([2]; 20 mg/kg p.o.): 78.9 ± 1.6%
- inhibition of MAO-B, brain [6]: no significant inhibition
- inhibition of MAO-B, liver [7]: no significant inhibition
- visible effects after acute doses [8]: No visible effects
- visible effects after acute doses [9]: No visible effects
- binding to MAO-A, removal from its complex by dialysis [10]: reversibly bound to MAO-A
- increase in response (elevation of blood pressure) to orally ingested tyramine [11]: No pharmacologically significant increase in response

Compound: Cc1cc(C(=O)NNCc2ccccc2)no1 [isocarboxazid]
- type of MAO inhibition [3]: non-selective, irreversible inhibitors
